The target in assay [1] is T1, OR7D4 S84N (Homo sapiens, UniProt Q8NG98, S84N).
T1 sequence (Q8NG98 1-312 S84N): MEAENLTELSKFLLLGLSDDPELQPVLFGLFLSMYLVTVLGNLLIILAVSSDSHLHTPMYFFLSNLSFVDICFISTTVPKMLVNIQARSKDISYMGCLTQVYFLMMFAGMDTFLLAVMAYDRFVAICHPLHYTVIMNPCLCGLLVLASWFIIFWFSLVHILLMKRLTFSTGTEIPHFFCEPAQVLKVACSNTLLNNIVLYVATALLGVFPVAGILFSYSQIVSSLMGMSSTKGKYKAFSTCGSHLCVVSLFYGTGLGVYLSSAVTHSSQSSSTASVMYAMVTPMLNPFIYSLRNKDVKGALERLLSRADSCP
The assay can be described thus: Luciferase assay dose response, OR7D4 S84N. Format: cell-based. Particulars: exceeding the activity of RT variant at every concentration tested. The text has this: (§1) Heterologous expression of human odorant receptors. 423 human odorant receptors including 337 predicted functional receptors were cloned. Odorant receptors that contained the first 20 amino acid of human rhodopsin (see, e.g., Krautwurst, D., et al., Cell 95, 917-926 (1998); herein incorporated by reference in its entirety) in pCl (Promega) were expressed in the Hana3A cell line along with a short form of mRTP1, RTP1S, (M37 to the C-terminal end), which enhanced functional expression of the odorant receptors. For immunocytochemistry, cells were fixed, permeabilized and incubated with monoclonal anti-rhodopsin antibody, 4D2 (see, e.g., Laird, D. W., et al., Invest Opthalmol Vis Sci 29.419428 (1988); herein incorporated by reference in its entirety), followed by Cy3-conjugated donkey anti-mouse IgG (Jackson Immunologicals). […]
(§2) Luciferase assay and data analysis. […] Luminescence was measured using Wallac Victor 1420 (Perkin-Elmer). Normalized luciferase activity was calculated by the formula [luc(N)-luc(lowest)]/luc(highest)/RL (N) where luc(N)=luminescence of luciferase of a certain well; luc(lowest)=lowest luminescence of luciferase of a plate or a set of plates; luc(highest)=highest luminescence of luciferase of a plate or a set of plates; RL(N)=luminescence of Renilla luciferase of a certain well. Data was analyzed with Microsoft Excel and GraphPad Prism 4.

The target of assay [2] is T2, OR7D4 P79L (Homo sapiens, UniProt Q8NG98, P79L).
T2 construct: expressed in transfected cells; host or cells: Hana3A (HEK293T-derived)
T2 sequence (Q8NG98 1-312 P79L): T1 sequence (Q8NG98 1-312 S84N) with P79L, N84S
The assay can be described thus: Luciferase assay dose response, OR7D4 P79L. Format: cell-based. Particulars: all concentrations tested.
Text: as §1, §2

Residue numbers refer to the chain shown, from its start.

The text below walks through data of patent US8298781B2, “Compositions and methods for characterizing and regulating olfactory sensation” (Duke University, priority 2007, dated 2012).

Consider `C[C@]12CCC(=O)C[C@@H]1CC[C@@H]1[C@@H]2CC[C@]2(C)C=CC[C@@H]12` [androstenone, 5α-androst-16-en-3-one], for which the “dose-response sensitivity of OR7D4 S84N in vitro” value in assay [1] is on record as “remarkable sensitivity”. In addition, in assay [2], the “dose-response function of OR7D4 P79L in vitro” value is on record as “severely impaired function”.
For the compound `C[C@@]12C=CC[C@H]1[C@@H]1CCC3=CC(=O)CC[C@]3(C)[C@H]1CC2` [androstadienone, androsta-4,16-dien-3-one], in assay [1], the “dose-response sensitivity of OR7D4 S84N in vitro” value is listed as “remarkable sensitivity”. Further, the “dose-response function of OR7D4 P79L in vitro” value in assay [2] was “severely impaired function”.
